Assay results from ChEMBL document CHEMBL1201862, “PubChem BioAssay data set” (2004).
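Exposure lasted 48 hours, with cells grown in 96-well plates and compounds tested at five concentrations. GI50 is the concentration that inhibits growth by half.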 Activity calls are given as the source filed them. Rule as the data show it: active = GI50 up to about 1.1 µM and inactive = higher. Numbered stars: 1 amine (or outer) side, 2 acyl side, 3 side chain; on linkers, the order of the positions; unused ones are H or OH. Bridge positions count the residues as written; N and C are the ends. Square brackets hold non-standard residues; d marks the D form. Peptide text beside a SMILES is read from it. X58 = COc1c(N[*:1])cccc1C(=O)O[C@H](C(=O)[C@H](C)C(=O)[*:2])C(C)C; X57 = CC(C)C[C@H](C(=O)[*:2])C(C)C(=O)C1CCCN1[*:1]; NMeY = CN[C@@H](Cc1ccc(O)cc1)C(=O)O; Lac = C[C@H](O)C(=O)O

Assays:
Assay in all cases: growth of human tumour cells (NCI), 48 h
SNB-19 = tested on: SNB-19
CAKI-1 = tested on: CAKI-1
SN12C = tested on: SN12C
SF-539 = tested on: SF-539
OVCAR-8 = tested on: OVCAR-8
MDA-MB-435 = tested on: MDA-MB-435
COLO 205 = tested on: COLO 205
SR = tested on: SR
OVCAR-3 = tested on: OVCAR-3
HCT-116 = tested on: HCT-116
MOLT-4 = tested on: MOLT-4
CCRF-CEM = tested on: CCRF-CEM
RPMI-8226 = tested on: RPMI-8226
EKVX = tested on: EKVX
T47D = tested on: T47D
A549 = tested on: A549
IGROV-1 = tested on: IGROV-1
SK-MEL-28 = tested on: SK-MEL-28
NCI/ADR-RES = tested on: NCI/ADR-RES
SF-268 = tested on: SF-268
NCI-H460 = tested on: NCI-H460
HL-60 = tested on: HL-60
KM12 = tested on: KM12
OVCAR-4 = tested on: OVCAR-4
SW-620 = tested on: SW-620
M14 = tested on: M14
TK-10 = tested on: TK-10
UO-31 = tested on: UO-31
MDA-MB-231 = tested on: MDA-MB-231
LOX IMVI = tested on: LOX IMVI
UACC-257 = tested on: UACC-257
HOP-92 = tested on: HOP-92
HCC 2998 = tested on: HCC 2998
786-0 = tested on: 786-0
SF-295 = tested on: SF-295
OVCAR-5 = tested on: OVCAR-5
ACHN = tested on: ACHN
HCT-15 = tested on: HCT-15
UACC-62 = tested on: UACC-62
BT-549 = tested on: BT-549
HOP-62 = tested on: HOP-62
U-251 = tested on: U-251
PC-3 = tested on: PC-3
Hs-578T = tested on: Hs-578T
SNB-75 = tested on: SNB-75
DU-145 = tested on: DU-145
K562 = tested on: K562
SK-OV-3 = tested on: SK-OV-3
HT-29 = tested on: HT-29
SK-MEL-2 = tested on: SK-MEL-2
MDA-N = tested on: MDA-N
RXF 393 = tested on: RXF 393
MCF7 = tested on: MCF7
SK-MEL-5 = tested on: SK-MEL-5
NCI-H522 = tested on: NCI-H522
NCI-H23 = tested on: NCI-H23
NCI-H226 = tested on: NCI-H226
Malme-3M = tested on: Malme-3M

Cc1cc2nc(N3C(=O)/C(=C/Cc4ccco4)N=C3c3ccccc3)sc2cc1C
GI50 (SNB-19): 49.7 µM (inactive)
GI50 (CAKI-1): 44.4 µM (inactive)
GI50 (SN12C): 25.6 µM (inactive)
GI50 (SF-539): 41.1 µM (inactive)
GI50 (OVCAR-8): 31.6 µM (inactive)
GI50 (MDA-MB-435): 7.53 µM (inactive)
GI50 (COLO 205): 28 µM (inactive)
GI50 (SR): 38.4 µM (inactive)
GI50 (OVCAR-3): 22.3 µM (inactive)
GI50 (HCT-116): 17 µM (inactive)
GI50 (MOLT-4): 20.3 µM (inactive)
GI50 (CCRF-CEM): 9.18 µM (inactive)
GI50 (RPMI-8226): 23.7 µM (inactive)
GI50 (EKVX): 20.7 µM (inactive)
GI50 (T47D): 31 µM (inactive)
GI50 (A549): 36.9 µM (inactive)
GI50 (IGROV-1): 21.3 µM (inactive)
GI50 (SK-MEL-28): 64.6 µM (inactive)
GI50 (NCI/ADR-RES): 27.6 µM (inactive)
GI50 (SF-268): 40.4 µM (inactive)
GI50 (NCI-H460): 23.6 µM (inactive)
GI50 (HL-60): 23 µM (inactive)
GI50 (KM12): 25.9 µM (inactive)
GI50 (OVCAR-4): 29.5 µM (inactive)
GI50 (SW-620): 31.3 µM (inactive)
GI50 (M14): 35.6 µM (inactive)
GI50 (TK-10): 84.1 µM (inactive)
GI50 (UO-31): 26.6 µM (inactive)
GI50 (MDA-MB-231): 51.5 µM (inactive)
GI50 (LOX IMVI): 25.9 µM (inactive)
GI50 (UACC-257): 26 µM (inactive)
GI50 (HOP-92): 10.2 µM (inactive)
GI50 (HCC 2998): 24.6 µM (inactive)
GI50 (786-0): 27.2 µM (inactive)
GI50 (SF-295): 43.8 µM (inactive)
GI50 (OVCAR-5): 24.9 µM (inactive)
GI50 (ACHN): 26.7 µM (inactive)
GI50 (HCT-15): 30.5 µM
GI50 (UACC-62): 23.3 µM (inactive)
GI50 (BT-549): 30.5 µM (inactive)
GI50 (HOP-62): 54.7 µM (inactive)
GI50 (U-251): 29 µM (inactive)
GI50 (PC-3): 12.1 µM (inactive)
GI50 (Hs-578T): 39.3 µM (inactive)
GI50 (SNB-75): 17.7 µM (inactive)
GI50 (DU-145): 61.9 µM (inactive)
GI50 (K562): 22.8 µM (inactive)
GI50 (SK-OV-3): 92 µM (inactive)
GI50 (HT-29): 23.7 µM (inactive)
GI50 (SK-MEL-2): 26.8 µM (inactive)
GI50 (MDA-N): 9.98 µM (inactive)
GI50 (RXF 393): 13.6 µM (inactive)
GI50 (MCF7): 13.4 µM (inactive)
GI50 (SK-MEL-5): 22.3 µM (inactive)

COc1ccc(C[C@H]2C(=O)O[C@H](C)[C@H](NC(=O)[C@@H](CC(C)C)C(C)C(=O)C3CCCN3C(=O)[C@H](C)O)C(=O)Nc3cccc(c3OC)C(=O)O[C@@H](C(C)C)C(=O)[C@H](C)C(=O)N[C@@H](CC(C)C)C(=O)N3CCC[C@H]3C(=O)N2C)cc1 (stereo not given in full) (H-[Lac][X57]T[X58]LP[NMeY](Me); ester 3-C)
GI50 (SNB-19): 11 µM (inactive)
GI50 (CAKI-1): > 12.5 µM (inactive)
GI50 (SN12C): > 12.5 µM (inactive)
GI50 (SF-539): > 12.5 µM (inactive)
GI50 (OVCAR-8): > 12.5 µM (inactive)
GI50 (MDA-MB-435): 4.93 µM (inactive)
GI50 (COLO 205): 9.29 µM (inactive)
GI50 (SR): 5.09 µM (inactive)
GI50 (OVCAR-3): 7.38 µM (inactive)
GI50 (HCT-116): 6.12 µM (inactive)
GI50 (MOLT-4): 1.91 µM (inactive)
GI50 (NCI-H522): 9.82 µM (inactive)
GI50 (RPMI-8226): 6.53 µM (inactive)
GI50 (EKVX): > 12.5 µM (inactive)
GI50 (T47D): > 12.5 µM (inactive)
GI50 (A549): 6.75 µM (inactive)
GI50 (IGROV-1): > 12.5 µM (inactive)
GI50 (SK-MEL-28): > 12.5 µM (inactive)
GI50 (NCI/ADR-RES): > 12.5 µM (inactive)
GI50 (SF-268): > 12.5 µM (inactive)
GI50 (NCI-H460): 9.02 µM (inactive)
GI50 (KM12): > 12.5 µM (inactive)
GI50 (OVCAR-4): > 12.5 µM (inactive)
GI50 (SW-620): 9.29 µM (inactive)
GI50 (M14): 11.4 µM (inactive)
GI50 (TK-10): > 12.5 µM (inactive)
GI50 (UO-31): > 12.5 µM (inactive)
GI50 (MDA-MB-231): > 12.5 µM (inactive)
GI50 (LOX IMVI): 9.66 µM (inactive)
GI50 (UACC-257): > 12.5 µM (inactive)
GI50 (HOP-92): > 12.5 µM (inactive)
GI50 (NCI-H23): > 12.5 µM (inactive)
GI50 (HCC 2998): 3.82 µM (inactive)
GI50 (786-0): > 12.5 µM (inactive)
GI50 (SF-295): > 12.5 µM (inactive)
GI50 (NCI-H226): 7.26 µM (inactive)
GI50 (OVCAR-5): > 12.5 µM (inactive)
GI50 (Malme-3M): > 12.5 µM (inactive)
GI50 (ACHN): 12.2 µM (inactive)
GI50 (HCT-15): > 12.5 µM
GI50 (UACC-62): > 12.5 µM (inactive)
GI50 (BT-549): > 12.5 µM (inactive)
GI50 (HOP-62): > 12.5 µM (inactive)
GI50 (U-251): > 12.5 µM (inactive)
GI50 (PC-3): 3.85 µM (inactive)
GI50 (Hs-578T): > 12.5 µM (inactive)
GI50 (SNB-75): 2.81 µM (inactive)
GI50 (DU-145): > 12.5 µM (inactive)
GI50 (K562): 0.372 µM (active)
GI50 (SK-OV-3): > 12.5 µM (inactive)
GI50 (HT-29): 2.79 µM (inactive)
GI50 (SK-MEL-2): > 12.5 µM (inactive)
GI50 (MDA-N): 10.1 µM (inactive)
GI50 (RXF 393): > 12.5 µM (inactive)
GI50 (MCF7): > 12.5 µM (inactive)
GI50 (SK-MEL-5): > 12.5 µM (inactive)
